Experimental data taken from PubChem BioAssay (NCI).
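Five compound concentrations were applied to cells in 96-well plates for 48 hours; endpoints were derived by simple linear interpolation of the resulting dose-response curve. Here, GI50 denotes the concentration required for 50% inhibition of growth. The concentration for full growth arrest is given as TGI.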

Key:
Test in all cases: inhibition of tumour cell growth, NCI panel, 48 h
[1] = tested on: A549 NSCLC
[2] = tested on: NCI-H226 lung
[3] = tested on: NCI-H460 lung
[4] = tested on: SK-OV-3 ovarian
[5] = tested on: SN12C renal
[6] = tested on: UO-31 renal
[7] = tested on: SF-295 CNS
[8] = tested on: RXF 393 renal

SMILES	TGI [1] [µM]	TGI [2] [µM]	TGI [3] [µM]	TGI [4] [µM]	TGI [5] [µM]	TGI [6] [µM]	TGI [7] [µM]	TGI [8] [µM]	GI50 [1] [µM]	GI50 [2] [µM]	GI50 [3] [µM]	GI50 [8] [µM]	GI50 [7] [µM]	GI50 [5] [µM]	GI50 [6] [µM]	GI50 [4] [µM]
CCn1nc(-c2ccccc2)c2c1N(C)c1ccccc1-n1c(-c3ccccc3)nnc1-2	29.9	52.7	29.2	38.5	32.7	40.5										
CN(C)c1ccc(/C=N/n2c(-c3ccccc3)nc3ccccc3c2=O)cc1	> 100	> 100	> 100	> 100	> 100		> 100									
COC(=O)C1=COC(C)C2C[n+]3ccc4c([nH]c5ccccc54)c3CC12 (configuration not stated)	> 100	> 100	> 100	> 100	> 100	> 100	> 100									
CC(=O)OC(CC(C)C)P1(=O)N(CC(C)(C)C)[C@@H]2CCCC[C@H]2N1CC(C)(C)C (some centres not stated)	18	23.2	22	30.7	24.4	21.2	20.4	18.1								
O=c1[nH]c(=S)c2cc3c(=S)[nH]c(=O)n(CCC(c4ccccc4)(c4ccccc4)c4ccccc4)c3nc2n1CCC(c1ccccc1)(c1ccccc1)c1ccccc1	> 100	> 100	> 100	> 100	> 100	> 100	> 100									
O=c1c2ncn(C3CCCCO3)c2n(-c2ccccc2)c(=S)n1-c1ccccc1 (configuration not stated)	> 100	86.2	> 100	61	> 100	> 71.4	51.7	25.4								
O=C(O)CS(=O)c1ccc2c3c(cccc13)C(=O)c1ccccc1-2 (configuration not stated)	> 100	> 100	> 100	> 100	> 100	> 100	> 100	> 100								
COc1cc2c(cc1OC)C1=Cc3ccc(OC)c(OC)c3C(C#N)N1CC2 (configuration not stated)	> 100	> 100	> 100	> 100	> 100	> 100	> 100									
O=c1[nH]nc(-c2ccc([N+](=O)[O-])cc2)n1/N=C/c1ccc([N+](=O)[O-])cc1	> 100	> 100	> 100	> 100	> 100	> 100	> 100	> 100								
c1ccc2c(c1)nc1n2CCNC1	> 100	> 100	> 100	> 100	> 100	> 100	> 100	> 100								
COC(=O)c1c(O)ccc2c1c1c(n2Cc2ccc(OC)cc2)C(=O)c2ccccc2C1=O	21.6	25.8	33.3	48.1	7.35	29.2	39	34.3								
N#Cc1nc(C(F)(F)F)oc1N	> 100	> 100	> 100	> 100	> 100	> 100	> 100	> 100								
NNC(=Nc1ccccc1)SCc1ccccc1	> 100	> 100	> 100	> 100	> 100	> 100	> 100	> 100								
N#CC(c1nc2ccccc2s1)c1nc(Cl)ncc1Br (configuration not stated)	> 100	> 100	> 100	> 100	> 100	> 100	> 100	90.3								
COc1ccc(/C=C2\Sc3nnc(C)n3N=C2c2cc(F)c(Cl)cc2Cl)cc1OC	56.2	51.8	53.1	76.9	34.5	22.6	53.6	32.7								
COc1ccc2c(c1)c(=O)c1c(NCCCN(C)CCCNc3ccc4c(=O)n(CCN(C)C)c(=O)n5c6ccc(OC)cc6c(=O)c3c45)ccc3c(=O)n(CCN(C)C)c(=O)n2c31	1.26	0.409	0.209	4.98	1.43	1.01	3.48	0.602								
Cc1cccc(/C=N/NC(=S)N2CCCCCC2)n1	17.2	7.46	1.18		0.805	9.91	31.7	38.9								
CCOC(=O)c1[nH]cnc1/N=N/N(C)N	> 100	> 100	> 100	> 100	> 100	> 100	> 100	> 100								
CC(C)=NNc1cnnc2ccc([N+](=O)[O-])cc12	> 100	> 100	> 100	> 100	> 100	> 100	> 100	> 100								
Cc1ccc(S(=O)(=O)Nc2nc3ccccc3c(=O)n2C2CCCCC2)cc1	> 100	> 100	> 100	> 100	> 100	> 100	> 100	> 100								
Cc1c(C#N)c2nnn(-c3ccc([N+](=O)[O-])cc3)c(=O)n2c1-c1ccccc1	> 100	26.9	26.5	79.4	24.9	25.5	14	31.2								
COc1ccc(C[C@H]2NC(=O)/C=C/C[C@@H]([C@H](C)[C@H]3O[C@@H]3c3ccccc3)OC(=O)[C@H](CC(C)C)OC(=O)[C@H](C)CNC2=O)cc1	> 0.0001	> 7.26e-05	> 0.0001	> 0.0001	> 0.0001	> 0.0001	> 6.84e-05	> 3.12e-05								
OCc1c2c(cc3c1CC1(C3)Cc3cc4c(c(CO)c3C1)CCC4)CCC2	30.9	28.5		33	32.4	3.22	26.9	32.7								
Nc1nc2cc(CNc3ccc(C(=O)O)cc3)ccc2nc1-c1ccccc1	> 100	> 100	> 100	> 100	> 100	> 100	> 100	> 100								
Cc1ccc2ccc(=O)oc2c1	> 100	> 100	> 100		> 100	> 100	> 100	> 100								

SMILES	TGI [1] [µM]	TGI [2] [µM]	TGI [3] [µM]	TGI [4] [µM]	TGI [5] [µM]	TGI [6] [µM]	TGI [7] [µM]	TGI [8] [µM]	GI50 [1] [µM]	GI50 [2] [µM]	GI50 [3] [µM]	GI50 [8] [µM]	GI50 [7] [µM]	GI50 [5] [µM]	GI50 [6] [µM]	GI50 [4] [µM]
CN(C)NC1=NS(=O)(=O)c2cc3c(cc2S1)N(N(C)C)C(=O)c1cc2c(cc1N(N(C)C)C3=O)SC(NN(C)C)=NS2(=O)=O	> 10	> 10	> 10	> 10	> 10	> 10	> 10	> 10								
CC1=NC2(CCCCC2)N(Cl)C(=O)C1SC#N (configuration not stated)	24.8	40.1			36.5	32.9	36.1	32.3								
COc1ccc(-c2cc(C3CC3)nc(SCC(=O)O)c2C#N)cc1	> 100	> 100	> 100	> 100	> 100	11.1	> 100	> 100								
COc1ccc(C2c3cc4c(cc3OC(NNC(N)=O)C2C)OCO4)cc1 (configuration not stated)	> 100	> 76.2	98.9	> 100	> 100	> 90.5	21.1	54.5								
O=c1[nH]nc(Cc2ccccc2)n1/N=C/c1ccc([N+](=O)[O-])o1	> 100	29.5	> 100	> 100	46	> 100	36.2	7.94								
CC(=O)[C@H]1CC[C@H]2[C@@H]3CCC4=CC(=O)CC[C@]4(C)[C@H]3CC[C@]12C	88.5	45	42.4	62.9	41.1	26.4	76	57.9								
COc1ccc2c(c1)C1Oc3ccccc3CC1(O)CO2 (configuration not stated)	> 100	> 100		> 100	> 100	> 100	> 100									
OC12C3C4CC5C(C4[C@@H]1Br)C2[C@@](O)(c1c(F)c(F)c(F)c(F)c1F)C53 (some centres not stated)	> 100		> 100		> 100	95.2	76.8	94.3								
CC(C)(C)OC(=O)NC1CCCC1C(O)(C1=CCCC1)C1=CCCC1 (configuration not stated)	> 100	> 100	> 100	> 100	> 100			> 100								
Cc1c(C)c2c(c(N)c1C#N)C(=O)N(OS(=O)(=O)c1ccccc1)C2=O	32.1	43.3	> 100		51.4	> 100	> 100	30.7								
Cc1ccc(S(=O)(=O)N(CC(O)c2ccccc2)c2ccccc2F)cc1 (configuration not stated)	41.4	48.7	32.5	38.4	34.3	29.8	37.9									
C/C=C1\CN2CCC34c5ccccc5N(C)C35OCC4(C(=O)OC)C1CC25 (configuration not stated)	> 100		64.8	> 100	> 100	> 100	> 100									
NNC(=O)Cc1cccnc1	> 100		> 100	> 100	> 100	> 100	> 100	> 100								
CC1(C)CC(=O)C2=C(C1)NC(SCC(=O)O)=C(C#N)C2c1ccc(Br)cc1 (configuration not stated)	> 100	> 100	> 100	> 100		15.6	> 100	> 100								
COC(=O)c1c(C)ccc2c(O)c3c(cc12)C(=O)c1c2c(cc(O)c1C3=O)C1(C)OC(C)(O2)C(O)C(N(C)C)C1O (configuration not stated)		11.5		> 100	12.1	9.27	25.1									
Cc1ccc(S(=O)(=O)NC(=O)NC(Cc2ccccc2)C(=O)O)cc1 (configuration not stated)	> 100		> 100	> 100	> 100	> 100	> 100	> 100								
O=C(Nc1ccc(-n2cc(-c3ccncc3)c(-c3ccc(O)c(Cl)c3)n2)cc1)c1cc(Cl)cc(Cl)c1	> 32.5	> 32.5	> 32.5		> 32.5	> 32.5	5.3	1.13	2.86	> 32.5	2	0.575	1.05	2.44	1.62	
c1nncn1C12C3C4C5C3C1C5C42 (configuration not stated)	> 100	> 100	> 100	> 100	> 100		> 100									
O=C(Nc1ccccc1)c1cc(S(=O)(=O)Nc2n[nH]c(=O)[nH]2)c(SSc2cc(Cl)c(C(=O)Nc3ccccc3)cc2S(=O)(=O)Nc2n[nH]c(=O)[nH]2)cc1Cl	> 100	> 100	> 100	> 100	> 100	> 100	> 100									
O=C1c2cc([N+](=O)[O-])cnc2S(=O)(=O)N1c1ccc(Br)cc1	> 100	> 100	> 100	> 100	> 100	> 100	> 100									
CSc1nc2c(c(=O)n1C)N=C(c1ccc(Cl)cc1)CC(c1ccccc1)N2 (configuration not stated)	73.7	42.6		70.3	39.4	> 100	53.1	75.4								
O=c1c(/C=C/c2c(O)ccc3ccccc23)nnc2sc(-c3cccc([N+](=O)[O-])c3)nn12				> 100	> 100	> 100	82.6	> 100								
CCCN=C1Nc2ccccc2[C@@H]2N(C)c3ccccc3C(C)C[C@]12C (some centres not stated)	> 100	73.4	55.4		> 100	98.9	30.9	37.2								
OCCN1CN(c2nc(N3CN(CCO)C3)nc(N3CN(CCO)C3)n2)C1	> 100	51.2	36.1		39.5	56.1		44.8								
COc1cc(C(=O)O[C@H](C(=O)NCCNC(=O)[C@@H](OC(=O)c2cc(OC)cc3c(C)cccc23)[C@]2(C)CO2)[C@]2(C)CO2)c2cccc(C)c2c1	1.25	2.11	0.359	9.74	0.263		0.793		< 0.0428	0.66	< 0.0214		0.173	0.0211	0.137	0.827
